Test results reported in patent publication US10322132B2, “Prevention or treatment of uratic or gouty diseases” (SHANTON PHARMA CO., LTD., priority 2015, dated 2019).

Columns and labels:
serum uric acid = assay: Uric acid-lowering experiment in cynomolgus monkeys; format: in vivo; design: Reduction rate of serum uric acid: concentration or dose not given beside the values; conditions: for Reduction rate of serum uric acid / Content of serum uric acid: intravenous; for Reduction rate of serum uric acid: 3 h after administration vs before administration; for Content of serum uric acid: 3 h after administration
Experimental: The experiment was done by reference to Komoriya K, Osada Y, Hasegawa M, Horiuchi H, Kondo S, Couch R C, Griffin T B. Hypouricemic effect of allopurinol and the novel xanthine oxidase inhibitor TEI-6720 in chimpanzees. Eur J Pharmacol. 1993 Dec. 21; 250(3): 455-60.
Each compound was tested in three non-naïve cynomolgus monkeys (1 #, 2 # and 3 #), wherein the monkeys were administered with test samples by intravenous injection. Blood was collected from the vein before administration and 1 h, 3 h, 6 h and 24 h after administration. The blood was left still at room temperature. The serum was collected by centrifugation. The content of uric acid in serum was measured. Reduction rate of serum uric acid=(average uric acid content before administration−average uric acid content after administration)/average uric acid content before administration*100%.

[1] = Pharmacokinetics experiment in cynomolgus monkeys, intravenous; format: in vivo, cynomolgus monkeys (Macaca fascicularis); conditions: 5 mg/kg, Mean ± SD, n = 3
Experimental: Three non-naïve cynomolgus monkeys were administered with test compounds A, B and D at a dose of 5 mg/kg by intravenous injection and with test compound C at a dose of 3 mg/kg by intravenous injection, with one compound being tested at a time. Blood was collected from the vein before administration and 1 h, 3 h, 6 h and 24 h after administration, and plasma was isolated. The plasma was analyzed by a 4000 Q Trap LC-MS/MS instrument. The concentrations of the test samples were output by Analyst 1.6.1 from AB Company. The parameters ( ) such as the mean, standard deviation, and coefficient of variation were calculated using Microsoft Excel, wherein the values directly output by Analyst 1.6.1 requires no calculation. PK parameters were calculated using Pharsight Phoenix 6.2 software (NCA model).

[2] = tested on: MSU-induced gouty arthritis; assay: MSU-induced gouty arthritis, toe volume; format: in vivo, Male Wistar rats; conditions: for Inhibition of toe volume change (%): vs model group; for effect on increase of the toe volumes in the test rats (in words): compared with the model group
Experimental: The experiment was done by reference to Hsin-Pai Lee, Shi-Ying Huang, Yen-You Lin. Soft Coral-Derived Lemnalol Alleviates Monosodium Urate-Induced Gouty Arthritis in Rats by Inhibiting Leukocyte Infiltration and iNOS, COX-2 and c-Fos Protein Expression. […] 2013, 11, 99-113.
One gram of uric acid was weighed, introduced into 200 mL of boiling water and heated. Then, NaOH (2 mol/L) was added until pH reached 9. The solution became clear, and was cooled at room temperature and then left still overnight. MSU was obtained after filtration, which was dried at 60° C. for 24 h and then sterilized at a high temperature of 180° C.
(§1) The toe volumes of the rats were measured one day prior to the experiment. The rats were administered with the solvent by subcutaneous injection in the model group at a dose of 5 mL/kg, while the rats were administered with test samples by subcutaneous injection in administration groups at a dose of 5 mg/kg. Rats were anesthetized immediately after administration and were injected with 0.09 mL of MSU suspension into the joint cavity of the left ankle. The volume of the left toe was measured in rats 9 h after the injection of MSU into the ankle joint cavity.
as §1, with “dose of 15 mL/kg, while” for “dose of 5 mL/kg, while”, “dose of 15 mg/kg or 10 mg/kg. Rats” for “dose of 5 mg/kg. Rats”
The toe volumes of rats were measured one day prior to the experiment. The rats were administered with the solvent by subcutaneous injection in the model group at a dose of 15 mL/kg, while the rats were administered with the test sample by subcutaneous injection in administration group at a dose of 15 mg/kg. Rats were anesthetized immediately after administration and were injected with 0.09 mL of MSU suspension into the joint cavity of the left ankle. The volume of the left toe in each rat was measured 9 h after the injection of MSU into the ankle joint cavity.

[3] = tested on: MSU-induced gouty arthritis; assay: Pain value in rats with gouty arthritis (electronic Von Frey pain threshold detector); format: in vivo, Male Wistar rats
Experimental: The rats with gouty arthritis were placed in a metabolic cage, and the palm center of the left foot of each rat was irritated with an electronic Von Frey pain threshold detector. The maximum stress value was recorded when each rat withdrew its foot, and the value was the pain value of that rat.

[4] = target: T1, human urate transporter 1 (hURAT1) (Homo sapiens, UniProt Q96S37); assay: Uptake of 14C-labeled uric acid in hURAT1 transfected cells; format: cell-based; conditions: 14C uric acid uptake, hURAT1-transfected HEK-293T cells, 5 min at 37° C.; read-out: IC50 (μM), inhibition of hURAT1 activity
T1 construct: expressed in transfected cells; host or cells: HEK-293T
T1 sequence (Q96S37 1-553): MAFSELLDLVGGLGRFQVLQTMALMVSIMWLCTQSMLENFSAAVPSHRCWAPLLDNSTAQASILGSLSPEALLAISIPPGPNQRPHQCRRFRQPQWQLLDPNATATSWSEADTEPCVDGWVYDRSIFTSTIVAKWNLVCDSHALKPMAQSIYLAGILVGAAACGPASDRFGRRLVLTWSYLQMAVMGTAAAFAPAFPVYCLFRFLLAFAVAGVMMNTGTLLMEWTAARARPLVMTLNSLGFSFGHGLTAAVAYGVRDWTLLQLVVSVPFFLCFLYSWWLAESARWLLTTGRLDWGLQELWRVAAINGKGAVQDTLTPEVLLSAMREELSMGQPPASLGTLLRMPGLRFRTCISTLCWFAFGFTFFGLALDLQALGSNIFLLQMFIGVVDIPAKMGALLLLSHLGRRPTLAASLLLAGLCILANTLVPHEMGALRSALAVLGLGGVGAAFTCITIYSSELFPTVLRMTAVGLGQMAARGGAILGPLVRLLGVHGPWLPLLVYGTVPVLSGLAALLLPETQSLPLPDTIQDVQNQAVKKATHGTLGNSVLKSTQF
Experimental: The compounds were prepared into the stock solutions (5 mM) with dimethyl sulfoxide (DMSO). This experiment involved 8 concentrations in total. The final concentrations were 5000 nM, 1250 nM, 312.5 nM, 78.1 nM, 19.5 nM, 4.9 nM, 1.2 nM and 0.3 nM, respectively.
Preparation of buffers: chlorine-free HBSS buffer (125 mM sodium gluconate, 4.8 mM potassium gluconate, 1.3 mM calcium gluconate, 1.2 mM KH2PO4, 1.2 mM MgSO4, 5.6 mM glucose, 25 mM 4-hydroxyethylpiperazine ethanesulfonic acid (HEPES) (pH 7.4)); lysis buffer (100 mM NaOH)
Transfected cells stably expressing human urate transporter 1 (hURAT1) were obtained by: placing human embryonic kidney cells (HEK-293T) in a cell culture plate containing complete medium, incubating the cells for 24 h at 37° C. in 5% CO2, rinsing the cells with phosphate buffered saline (PBS) followed by trypsin digestion to prepare a suspension containing single cells; placing 8×10^6 cells a cell culture plate, adding dropwise TransIT-293 Reagent:DNA complexes (1.5 ml of Opti-MEM I Reduced-Serum Medium, 15 g of plasmid DNA, and 45 μL of TransIT-293 Reagent were mixed uniformly and then incubated at room temperature for 30 min) to different areas of the cell culture plate, gently shaking the cell culture plate to homogeneously distribute the TransIT-293 Reagent:DNA complexes, and incubating the cells for 48 h at 37° C. in 5% CO2.
Uptake of ^14C-labeled uric acid in hURAT1 transfected cells: (1) hURAT1-transfected cells were placed in a Poly-D-lysine 96-well microplate at a cell density of 6×10^4/well, and left still overnight at 37° C. in 5% CO2; (2) after the cells were placed in the Poly-D-lysine 96-well microplate for 12 h, the cells were washed for 3 times with 200 μl of pre-heated chlorine-free HBSS buffer per well, and the washing solution in the microplate was removed; (3) 50 μl of uric acid-containing [8-14C] […]

[5] = Uric acid-lowering test in monkeys having hyperuricemia (UA subcutaneous injection); format: in vivo, cynomolgus monkeys; conditions: cynomolgus monkey, serum, sc; uric acid (UA) by subcutaneous injection at the nape, cynomolgus monkeys from the model group; read-out: half-life (t½z) (converted)
Experimental: The experiment was conducted by reference to Komoriya K, Osada Y, Hasegawa M, Horiuchi H, Kondo S, Couch R C, Griffin T B. Hypouricemic effect of allopurinol and the novel xanthine oxidase inhibitor TEI-6720 in chimpanzees. Eur J Pharmacol. 1993 Dec. 21; 250(3): 455-60.
In the Model group, three non-naïve cynomolgus monkeys (1 #, 2 # and 3 #) were administered with UA by subcutaneous injection at the nape. Blood was collected from the vein before UA administration and 0.5 h, 1 h, 2 h, 4 h, 6 h and 24 h after UA administration. The blood was left still at room temperature. The serum was collected by centrifugation. The content of serum uric acid was measured.
In the Administration group, three non-naïve cynomolgus monkeys (1 #, 2 # and 3 #) were administered with the test sample by intravenous injection after 2 weeks of clearance. Blood was collected from the vein before administration and 2 h after administration of test sample. Then, the monkeys were administered with UA by subcutaneous injection at the nape and blood was collected from the vein 1 h, 2 h and 4 h after the UA administration. The blood was left still at room temperature. The serum was collected by centrifugation. The content of serum uric acid was measured. Reduction rate of serum uric acid in healthy monkeys administered with test sample=(average uric acid content before administration−average uric acid content 2 h after administration of test sample)/average uric acid content before administration*100%, Reduction rate of serum uric acid in monkeys having hyperuricemia after administration of test sample=(uric acid content after UA administration in the model group−uric acid content after UA administration in the administration group)/uric acid content in the model group*(100%).
That was, the samples were collected before administration, 2 h after administration of test sample and 1 h, 2 h and 4 h after UA administration for determination of the serum uric acid content. The contents of serum uric acid in the model group and the administration group and the reduction rates of serum uric acid were shown in the following Tables 3-1, 3-2 and 3-3, respectively.

[6] = Example 6, 15 mg/kg subcutaneous, 9 h after MSU

SMILES	effect on serum uric acid levels in the test monkeys (in words) (serum uric acid; compared to the levels measured before administration)	Reduction rate of serum uric acid (serum uric acid; animal 1#) [%]	Reduction rate of serum uric acid (serum uric acid; animal 2#) [%]	Reduction rate of serum uric acid (serum uric acid; mean) [%]	Content of serum uric acid (serum uric acid; animal 1#) [µmol/L]	Content of serum uric acid (serum uric acid; animal 2#) [µmol/L]	Content of serum uric acid (serum uric acid; mean) [µmol/L]	t1/2z [1] [min]	Change of toe volume ([2]; Example 4, 5 mg/kg subcutaneous, 9 h after MSU injection into left ankle joint cavity) [mL]	Inhibition of toe volume change (%) ([2]; Example 4, 5 mg/kg subcutaneous, 9 h after MSU)	effect on increase of the toe volumes in the test rats (in words) ([2]; Example 4, 5 mg/kg)	Toe volume change [2, 6] [mL]	Inhibition of toe volume change (%) [2, 6] [%]	effect on increase of the toe volumes in the test rats (in words) ([2]; Example 6, 15 mg/kg)	Pain value ([3]; Example 6, 15 mg/kg subcutaneous, left foot, Von Frey) [g]	effect on pain in the test rats (in words) ([3]; Example 6, compared with the model group)	IC50 [4] [µM]	half-life [5] [min]
CCCCn1c(=O)[nH]c(=O)c2[nH]c(Cl)nc21 [Compound B, 8-chloro-3-butyl-3,7-dihydro-1H-purine-2,6-dione]	significantly reduce	17.5	9.2	14.1	69.1	52.3	60.7	163 ± 21	0.349	30.8	significantly inhibit	0.229	49.1	significantly inhibit	37.2	significantly reduce	3.02	–
O=c1[nH]c(=O)c2[nH]c(=O)[nH]c2[nH]1 [uric acid (UA), uric acid]	–	–	–	–	–	–	–	–	–	–	–	–	–	–	–	–	–	32.4
